Measurements published in PMC7087583 (Biotechnology Letters, 2012).

Target: SARS 3CL^pro (Severe acute respiratory syndrome coronavirus, UniProt P0C6U8)
Assay: biochemical
Design: species or system SARS-CoV

Row | Structure (SMILES) | 3CL^pro inhibitory activity relative to EGCG (times higher) [times] | IC50 [µM] | Ki [µM] | Type of inhibition | inhibition at 200 µM (pH 7.5) [%] | Inhibition (%) (pH 7.5)
1 | O=C(O[C@@H]1Cc2c(O)cc(O)cc2O[C@H]1c1cc(O)c(O)c(O)c1)c1cc(O)c(O)c(O)c1 [GCG, gallocatechin gallate] | 1.5 | 47 ± 0.9 | 25 ± 1.7 | competitive inhibition pattern | > 80 | 
2 | O=c1c(-c2ccc(O)cc2)coc2cc(O)ccc12 [Daidzein, daidzein] |  | 351 ± 2.9 |  |  | > 30 | 
3 | O=c1c(-c2ccc(O)cc2)coc2c([C@@H]3O[C@H](CO)[C@@H](O)[C@H](O)[C@H]3O)c(O)ccc12 [Puerarin, puerarin] |  | 381 ± 12.5 |  |  | > 30 | 
4 | Oc1cc(O)c2c(c1)O[C@H](c1cc(O)c(O)c(O)c1)[C@H](O)C2 [EGC, epigallocatechin] |  |  |  |  | 5 | 5.4
5 | O=C1c2c(O)cc(O)cc2O[C@H](c2cc(O)c(O)c(O)c2)[C@H]1O [AMPLS, ampelopsin] |  | 364 ± 8.7 |  |  | > 30 | 
6 | O=c1c(O)c(-c2ccc(O)c(O)c2)oc2cc(O)cc(O)c12 [Quercetin] |  | 73 ± 4 |  |  | > 80 | 
